Reference: paper PMC8595825 (Journal of medicinal chemistry, 2021)

Tested on: M. tuberculosis H37Rv
Format: cell-based, Mycobacterium tuberculosis H37Rv
Details: 1× to 8× MIC90, 8 weeks, 3 × 10^8 cells

`CCCCCCCCn1c2c([n+](CCCC)c1C)C(=O)c1ccccc1C2=O.[Br-]` [compound 32] was tested, and the spontaneous mutation frequency was < 3 × 10^−9 /CFU.

For `CCCCCCCn1c2c([n+](CCCCC)c1C)C(=O)c1ccccc1C2=O.[Br-]` [compound 48], the spontaneous mutation frequency was < 3 × 10^−9 /CFU.
